# Experimental data published in ChEMBL document CHEMBL5321242, “Design and synthesis of 4-acetoxypentanamide derivatives of spliceostatin A and their biological evaluation towards prostate cancer treatment” (Bioorg Med Chem Lett, 2023).
# pIC50: −log10 of the molar value.
# Assays:
# [1] = Partition coefficient, logD of the compound; format: physicochemical; details: octanol/water
# [2] = Solubility of the compound in PBS buffer; format: physicochemical
# [3] = Metabolic stability in human liver microsome assessed as parent compound remaining measured at 10 mins; format: ADME; details: liver microsomes, read-out: Stability
# [4] = Metabolic stability in human liver microsome assessed as parent compound remaining measured at 60 mins; format: ADME; details: liver microsomes, read-out: Stability
# [5] = Metabolic stability in mouse liver microsome assessed as parent compound remaining measured at 10 mins; format: ADME; details: liver microsomes, read-out: Stability
# [6] = Metabolic stability in mouse liver microsome assessed as parent compound remaining measured at 60 mins; format: ADME; details: liver microsomes, read-out: Stability
# [7] = Inhibition of AR-V7 expression in human 22Rv1 cells; format: functional, cell-based, CWR22R
# PNT2 = test: Cytotoxicity against human PNT2 cells assessed as reduction in cell viability upto 200 nM by MTS assay; format: toxicity, cell-based; details: pnt2, 0.2 µM
# [8] = Apparent permeability of the compound by PAMPA assay; format: ADME
Compound,Papp [8] [×10⁻⁶ cm/s],logD [1],solubility [2] [µM],remaining at 10 min [3] [%],remaining at 1 h [4] [%],remaining at 10 min [5] [%],remaining at 1 h [6] [%],pIC50 [7],Activity (PNT2)
CO[C@]1(C)C[C@@]2(CO2)[C@H](O)[C@@H](/C=C/C(C)=C/C[C@@H]2O[C@H](C)[C@H](NC(=O)/C=C\[C@H](C)OC(C)=O)C[C@@H]2C)O1,–,3.8,≥ 95,32,0.5,2.5,0,9.22,–
CC(=O)O[C@@H](C)/C=C\C(=O)N[C@@H]1C[C@H](C)[C@H](C/C=C(C)/C=C/[C@H]2OCC[C@@]3(CO3)[C@@H]2O)O[C@@H]1C,–,3.4,95,1.7,0,0.3,0.1,–,–
CC(=O)O[C@@H](C)/C=C/C(=O)N[C@@H]1C[C@H](C)[C@H](C/C=C(C)/C=C/[C@H]2OCC[C@@]3(CO3)[C@@H]2O)O[C@@H]1C,11.3,3.2,94.7,0,0,27,0,–,–

# The next lines start with results.
Papp [8] [×10⁻⁶ cm/s],Compound,logD [1],solubility [2] [µM],remaining at 10 min [3] [%],remaining at 1 h [4] [%],remaining at 10 min [5] [%],remaining at 1 h [6] [%],pIC50 [7],Activity (PNT2)
18.5,CC(=O)O[C@@H](C)/C=C(/C)C(=O)N[C@@H]1C[C@H](C)[C@H](C/C=C(C)/C=C/[C@H]2OCC[C@@]3(CO3)[C@@H]2O)O[C@@H]1C,3.6,≥ 95,1,0,0,0,–,Non-Toxic
8.5,CC(=O)O[C@@H](C)CCC(=O)N[C@@H]1C[C@H](C)[C@H](C/C=C(C)/C=C/[C@H]2OCC[C@@]3(CO3)[C@@H]2O)O[C@@H]1C,3.1,≥ 95,6,0,5,0,–,Non-Toxic
3.5,CC(C)NCC(O)COc1cccc2ccccc12 (configuration not stated) [PROPRANOLOL],–,–,–,–,–,–,–,–
